In patent US12485170B2, “Lipid composition targeting antigen-presenting cells and use thereof” (Beijing Youcare Kechuang Pharmaceutical Technology Co., Ltd., priority 2024, dated 2025):
“Also recorded” adds a separate entry of the source. Where two headings read alike, the source gives them in different places.

Assay: Solubility of anionic lipids in ethanol during preparation
Method: General method 1: The components of the lipid composition (including permanently anionic lipids, permanently cationic lipids, and/or neutral lipids, or combinations thereof) were dissolved in ethanol according to the specified molar ratio to prepare an ethanol lipid complex solution (with a total lipid concentration of 100 to 600 mM). The ethanol lipid complex solution was rapidly added to RNase-free water using the ethanol injection method. After stirring for 30 minutes, the resulting lipid composition solution was filtered through a polycarbonate membrane with a pore size of 100 nm to 400 nm.
General method 2: Permanently anionic lipids or compounds were dissolved in RNase-free water to obtain RNase-free water containing permanently anionic lipids. Permanently cationic lipids and neutral lipids were dissolved in ethanol according to the specified molar ratio to prepare an ethanol lipid complex solution (with a total lipid concentration of 100 to 600 mM). The ethanol lipid complex solution was rapidly added to the RNase-free water containing permanently anionic lipids using the ethanol injection method. After stirring for 30 minutes, the resulting lipid composition solution was filtered through a polycarbonate membrane with a pore size of 100 nm to 400 nm.
The molar ratio of permanently anionic lipids, permanently cationic lipid DOTMA, and neutral lipid DOPE in the different complexes was controlled at 1:2:1, and the particle size and PDI were measured.

| Compound | Notes: solubility of the anionic lipid in ethanol | Notes: solubility of the anionic lipid in ethanol (listed as farnesyl pyrophosphate) | Notes: solubility of the anionic lipid in ethanol (listed as pA (2′-OMe) mpG) | Notes: solubility of the anionic lipid in ethanol (phosphate sodium salt) |
| --- | --- | --- | --- | --- |
| CC(C)=CCC/C(C)=C/CC/C(C)=C/CO[P@@](=O)(O)OP(=O)(O)O (stereo in doubt) [Farnesyl pyrophosphate] | Insoluble in ethanol, | lower solubility in ethanol |  |  |
| CCCCCCCC/C=C\CCCCCCCC(=O)O [Oleic acid] | Soluble in ethanol, |  |  |  |
| COC1C(OP(=O)(O)OC[C@H]2O[C@@H](n3cnc4c(=O)[nH]c(N)nc43)C(O)C2O)[C@@H](COP(=O)(O)O)O[C@H]1n1cnc2c(N)ncnc21 (stereo partly drawn) [pA(2′-OMe)mpG, ((2R,3S,4S,5R)-3-(((((2R,3R,4S,5R)-5-(2-amino-6-oxo-1,6-dihydro-9H-purin-9-yl)-3,4-dihydroxytetrahydrofuran-2-yl)methoxy) (hydroxy)phosphoryl)oxy)-5-(6-amino-9H-purin-9-yl)-4-methoxytetrahydrofuran-2-yl) methyl dihydrogen phosphate] | Insoluble in ethanol, |  | lower solubility in ethanol |  |
| CCCCCCCC/C=C\CCCCCCCC(=O)OC[C@H](COP(=O)([O-])OCCNC(C)=O)OC(=O)CCCCCCC/C=C\CCCCCCCC.[Na+] [ADOPE, 2-acetamidoethyl ((R)-2,3-bis(oleoyloxy)propyl) phosphate sodium salt] |  |  |  | good solubility in ethanol; also recorded: Soluble in ethanol, |
